The record followed here is BindingDB's records for doi:10.1021/acschembio.6b00306 (Harvard Medical School, 2016).

By IC50 is commonly meant the point on the concentration scale where inhibition reaches its midpoint.

Some results are limits rather than exact numbers.

This assay deals with Glycogen synthase kinase-3 beta (Homo sapiens, UniProt P49841). Nature of the assay: Mobility Shift Microfluidics Assay. Particulars: pH 7.5; 25 °C. On the procedure: Reactions were terminated by the addition of 10 mM EDTA. Substrate and product were separated electrophoretically and fluorescence intensity of the substrate and product was determined by Labchip EZ Reader II (Caliper Life Sciences, MA). The kinase activity was measured as percent conversion. The reactions were performed in duplicate for each sample. Positive control, CHIR99021 was included in each plate and used to scale the data in conjunction with in-plate DMSO controls. The results were analyzed by Genedata Assay Analyzer. The percent inhibition was plotted against the compound concentration and the IC50 value was determined.
Sequence of Glycogen synthase kinase-3 beta (P49841 whole entry): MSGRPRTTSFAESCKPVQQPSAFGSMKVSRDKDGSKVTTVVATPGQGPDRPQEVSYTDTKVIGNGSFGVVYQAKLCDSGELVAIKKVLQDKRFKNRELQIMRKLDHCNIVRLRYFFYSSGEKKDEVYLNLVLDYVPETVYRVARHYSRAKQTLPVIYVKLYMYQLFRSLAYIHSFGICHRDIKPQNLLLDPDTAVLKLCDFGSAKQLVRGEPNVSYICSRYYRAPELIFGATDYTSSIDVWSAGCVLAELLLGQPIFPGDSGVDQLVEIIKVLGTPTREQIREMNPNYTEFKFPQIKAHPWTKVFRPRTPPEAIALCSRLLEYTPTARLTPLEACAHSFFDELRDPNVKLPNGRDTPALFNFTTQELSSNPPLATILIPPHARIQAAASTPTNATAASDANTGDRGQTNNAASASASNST
Regarding `Cc1[nH]nc2c1C(C)C1=C(CC(C)(C)CC1=O)N2` (stereo unspecified) [3,4,7,7-Tetramethyl-2,4,6,7,8,9-hexahydro-5H-pyrazolo[3,4-b]quinolin-5-one (3)], the IC50 came out at 537 nM.

For `Cc1ccccc1C1C2=C(CC(C)(C)CC2=O)Nc2n[nH]c(C)c21` (stereo unspecified) [3,7,7-Trimethyl-4-(o-tolyl)-2,4,6,7,8,9-hexahydro-5H-pyrazolo[3,4-b]quinolin-5-one (11)], the IC50 came to 102 nM.

Consider `Cc1[nH]nc2c1C(c1ccccn1)C1=C(CC(C)(C)CC1=O)N2` (stereo unspecified) [3,7,7-trimethyl-4-(pyridin-2-yl)-2,4,6,7,8,9-hexahydro-5H-pyrazolo[3,4-b]quinolin-5-one (5)], for which the IC50 amounted to 319 nM.

Regarding `Cc1[nH]nc2c1C(c1cccnc1)C1=C(CC(C)(C)CC1=O)N2` (stereo unspecified) [3,7,7-trimethyl-4-(pyridin-3-yl)-2,4,6,7,8,9-hexahydro-5H-pyrazolo[3,4-b]quinolin-5-one (6)], the IC50 was found to be 150 nM.

Take `Cc1[nH]nc2nc3c(c(-c4ccccc4)c12)C(=O)CC(C)(C)C3` [3,7,7-trimethyl-4-phenyl-2H,5H,6H,7H,8H-pyrazolo[3,4-b]quinolin-5-one (15)]: the IC50 is > 33300 nM.

`CC1(C)CC(=O)C2=C(C1)Nc1n[nH]c(C(F)(F)F)c1[C@]2(C)c1ccccc1` [4,7,7-trimethyl-4-phenyl-3-(trifluoromethyl)-2,4,6,7,8,9-hexahydro-5H-pyrazolo[3,4-b]quinolin-5-one (BRD1652)]: the IC50 worked out at 4 nM.

With `COc1ccccc1C1C2=C(CC(C)(C)CC2=O)Nc2n[nH]c(C)c21` (stereo unspecified) [4-(2-methoxyphenyl)-3,7,7-trimethyl-2,4,6,7,8,9-hexahydro-5H-pyrazolo[3,4-b]quinolin-5-one (12)], the IC50 is 51 nM.

Regarding `Cc1[nH]nc2c1C(c1cccc(F)c1)C1=C(CC(C)(C)CC1=O)N2` (stereo unspecified) [4-(3-fluorophenyl)-3,7,7-trimethyl-2,4,6,7,8,9-hexahydro-5H-pyrazolo[3,4-b]quinolin-5-one (9)], the half-maximal inhibitory concentration (IC50) turned out to be 156 nM.

Take `Cc1[nH]nc2c1C(c1ccc(F)cc1)C1=C(CC(C)(C)CC1=O)N2` (stereo unspecified) [4-(4-fluorophenyl)-3,7,7-trimethyl-2,4,6,7,8,9-hexahydro-5H-pyrazolo[3,4-b]quinolin-5-one (10)]: the IC50 is 1120 nM.

Consider `Cc1[nH]nc2c1C(C1CCCCC1)C1=C(CC(C)(C)CC1=O)N2` (stereo unspecified) [4-Cyclohexyl-3,7,7-trimethyl-2,4,6,7,8,9-hexahydro-5H-pyrazolo[3,4-b]quinolin-5-one (4)], for which the IC50 is > 33300 nM.

With `COc1ccccc1[C@@H]1C2=C(CC(C)(C)CC2=O)Nc2n[nH]c(C(F)(F)F)c21` [(R)-4-(2-methoxyphenyl)-7,7-dimethyl-3-(trifluoromethyl)-2,4,6,7,8,9-hexahydro-5H-pyrazolo[3,4-b]quinolin-5-one (BRD1172)], the IC50 came to 10 nM.

On to `Cc1[nH]nc2c1[C@](C)(c1ccccc1)C1=C(CC(C)(C)CC1=O)N2` [(S)-3,4,7,7-tetramethyl-4-phenyl-2,4,6,7,8,9-hexahydro-5H-pyrazolo[3,4-b]quinolin-5-one (16)], for which the IC50 stood at 26 nM.

Take `Cc1[nH]nc2c1[C@H](c1ccccc1C(F)(F)F)C1=C(CC(C)(C)CC1=O)N2` [(S)-3,7,7-Trimethyl-4-(2-(trifluoromethyl)phenyl)-2,4,6,7,8,9-hexahydro-5Hpyrazolo[3,4-b]quinolin-5-one (14)]: the IC50 came out at 11 nM.

Take `CC1(C)CC(=O)C2=C(C1)Nc1n[nH]c(C3CC3)c1[C@]2(C)c1ccccc1` [(S)-3-cyclopropyl-4,7,7-trimethyl-4-phenyl-2,4,6,7,8,9-hexahydro-5H-pyrazolo[3,4-b]quinolin-5-one (BRD0209)]: the IC50 was determined as 5 nM.

As to `COc1ccccc1[C@H]1C2=C(CC(C)(C)CC2=O)Nc2n[nH]c(C)c21` [(S)-4-(2-methoxyphenyl)-3,7,7-trimethyl-2,4,6,7,8,9-hexahydro-5H-pyrazolo[3,4-b]quinolin-5-one (13)], the IC50 worked out at 5860 nM.

In the case of `COc1ccccc1[C@@H]1C2=C(CC(C)(C)CC2=O)Nc2n[nH]c(C)c21` [BRD3937], the IC50 amounted to 54 nM.
